# The source made the active and inactive calls. No cut-off for these calls is given here.
# Columns and labels:
# HaCaT [1] = experiment: Antiinflammatory activity against human HaCaT cells assessed as inhibition of TNF-alpha-induced IL-8 protein expression at 5 uM after 6 hrs by ELISA relative to control; type: functional
# HaCaT [2] = experiment: Cytotoxicity against human HaCaT cells assessed as reduction in cell viability at 5 uM after 24 hrs by MTT assay; type: toxicity, cell-based
# [3] = Inhibition of TNF-alpha-induced NFkappaB (unknown origin) transcription in human HaCaT cells transiently transfected with NFkappaB-LUC after 6 hrs by luminescence based spectrophotometric assay; type: cell-based
# HaCaT [4] = experiment: Antiinflammatory activity against human HaCaT cells assessed as inhibition of TNF-alpha-induced IL-8 protein expression after 6 hrs by ELISA; type: functional, cell-based
# HaCaT [5] = experiment: Inhibition of TNF-alpha-induced NFkappaB (unknown origin) transcription in human HaCaT cells transiently transfected with NFkappaB-LUC at 5 uM after 6 hrs by luminescence based spectrophotometric assay; type: cell-based
Structure (SMILES),inhibition at 5 µM (HaCaT [1]),Activity (HaCaT [2]),IC50 [3],IC50 (HaCaT [4]),inhibition (HaCaT [5]),inhibition (HaCaT [1])
CCCCc1cc(O)c(C/C=C(\C)CCC=C(C)C)c(O)c1,100%,Non-Toxic,2360 nM,820 nM,100%,
CCCc1cc2c3c(c1)O[C@@]1(C)CCC([C@@H]3C1)C(C)(C)O2 (some centres not stated),,Non-Toxic,,,inactive,inactive
CCCc1cc(O)c2c(c1)O[C@](C)(CCC=C(C)C)CC2,,Non-Toxic,,,Active,inactive
CCCc1cc(O)c(C/C=C(\C)CCC=C(C)C)c(O)c1,,Non-Toxic,,,Active,inactive
CCCCc1cc2c(c(O)c1C(=O)OC)CC[C@@](C)(CCC=C(C)C)O2,100%,Non-Toxic,4230 nM,1580 nM,Active,
CCCCc1cc(O)c2c(c1)O[C@](C)(CCC=C(C)C)CC2,100%,Non-Toxic,3110 nM,1060 nM,100%,
CCCCc1cc2c3c(c1)O[C@@]1(C)CCC([C@@H]3C1)C(C)(C)O2 (some centres not stated),,Non-Toxic,,,inactive,inactive
CCCCc1cc2c(c(O)c1C(=O)O)CC[C@@](C)(CCC=C(C)C)O2,,Non-Toxic,,,Active,inactive
CCCc1cc(O)c(C/C=C(/C)CCC=C(C)C)c(O)c1,,Non-Toxic,,,Active,inactive
CCCCc1cc(O)c(C/C=C(/C)CCC=C(C)C)c(O)c1,100%,Non-Toxic,2800 nM,870 nM,100%,
CCCCCc1cc(O)c(C/C=C(\C)CCC=C(C)C)c(O)c1 [CANNABIGEROL],~40%,,2510 nM,> 5000 nM,,
C=C(C)[C@@H]1CCC(C)=C[C@H]1c1c(O)cc(CCCCC)cc1O,,,,,,inactive
CCCCc1cc(O)c(C/C=C(\C)CCC=C(C)C)c(O)c1C(=O)OC,100%,Non-Toxic,600 nM,530 nM,100%,

# — ChEMBL document CHEMBL5576082, “Minor Cannabinoids as Inhibitors of Skin Inflammation: Chemical Synthesis and Biological Evaluation” (J Nat Prod, 2024)
